Experimental data published in patent US9567345B2, “Pharmaceutically active pyrazolo-triazine derivatives” (LEAD DISCOVERY CENTER GMBH, priority 2012, dated 2017).
Where two headings read alike, the source gives them in different places.

Key:
Type in all cases: biochemical
CDK2/CycA = biological target: T1, CDK2/CycA (Homo sapiens, UniProt P24941); assay: CDK2 Enzymatic Activity Assay (Lance Kinase Activity Assay, FRET)
T1 construct: purchased Proqinase
Procedure: This protocol describes how the Lance Kinase Activity Assay was performed to determine IC50 values of compounds of general formula (I) against CDK/Cyclin complexes. The principle behind this enzymatic assay is based upon the phosphorylation of the Ulight-Peptide Substrat. It is detected by using a specific EU-labeled anti-phospho peptide antibody.
Binding of an inhibitor to the kinase prevents phosphorylation of the Ulight-MBP Substrat, resulting in a loss of FRET.
CDK2 Enzymatic Activity Assay
The compounds of general formula (I) exemplary summarized in Table 1 were diluted from a 10 mM DMSO stock solution 1:10 in a total volume of 15 μl DMSO. This compound predilution was then serial diluted 1:3 over 8 steps in DMSO and briefly spun down. Each compound solution was now diluted 1:20 in Enzymatic Buffer (HEPES: 50 mM, pH: 7.5; MgCl2: 10 mM; EGTA: 1 mM; DTT: 2 mM; Tween-20: 0.01%), mixed thoroughly and spun down.
For positive controls, 2 μl of DMSO working solution were mixed with 6 μl CDK2/CycA/substrate working solution and 2 μl ATP working solution. Positive and negative controls were calculated from at least 8 different wells. The 384 well plates were mixed in a Teleshaker plate mixer (Beckman Coulter, Brea, Calif., USA) at 2000 rpm for 40 sec, and incubated for 1 h at room temperature before addition of 10 μl LANCE Detection Buffer (EDTA: […]; Eu-Anti-P-MBP: 4 nM) per well. Plates were mixed in a Teleshaker plate mixer (Beckman Coulter, Brea, Calif., USA) at 2000 rpm for 40 sec, followed by incubation with Detection Buffer for 1 h, and reading. […] IC50 values were determined from the sigmoidal dose response curves with the software Quattro Workflow (Quattro GmbH, Munich, Germany).

CDK7/CycH/Mat1 = CDK7/CycH/Mat1 (Homo sapiens, UniProt P50613); assay: CDK7 Enzymatic Activity Assay (Lance Kinase Activity Assay, FRET)
Summary of the method: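 Ulight-MBP peptide phosphorylation by CDK7/CycH/Mat1 in HEPES 50 mM pH 7.5, MgCl2, EGTA, DTT, Tween-20; 1 h at room temperature, then EDTA stop with Eu-anti-phospho-MBP antibody for 1 h and TR-FRET read. Compounds in 8-point 1:3 DMSO series; IC50 from sigmoidal dose-response fit.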

CDK9/Cyclin T1 = CDK9/Cyclin T1 (Homo sapiens, UniProt P50750); assay: CDK9 Enzymatic Activity Assay (Lance Kinase Activity Assay, FRET)
Summary of the method: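 CDK9/cyclin T1 phosphorylation of a ULight-MBP peptide was run for 1 h at room temperature in pH 7.5 HEPES buffer with MgCl2, EGTA, DTT and Tween-20. It was followed by 1 h with Eu-anti-phospho-MBP antibody (4 nM) in EDTA detection buffer. TR-FRET loss gave IC50 from 8-point, 1:3 sigmoidal dose-response curves.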

[1] = Table 5B, class symbols per IC50 [nM] ranges of b581, read-out: CDK2: Selectivity of CDK7 inhibition over CDK2 inhibition
[2] = CDK7/CycH/Mat1, 25 μM ATP final, class ranges, read-out: CDK7: IC50 [nM] for CDK7 inhibition
[3] = Table 5B, class symbols per IC50 [nM] ranges of b581, read-out: CDK9: Selectivity of CDK7 inhibition over CDK9 inhibition

Chain of CDK9/Cyclin T1 (P50750 whole entry): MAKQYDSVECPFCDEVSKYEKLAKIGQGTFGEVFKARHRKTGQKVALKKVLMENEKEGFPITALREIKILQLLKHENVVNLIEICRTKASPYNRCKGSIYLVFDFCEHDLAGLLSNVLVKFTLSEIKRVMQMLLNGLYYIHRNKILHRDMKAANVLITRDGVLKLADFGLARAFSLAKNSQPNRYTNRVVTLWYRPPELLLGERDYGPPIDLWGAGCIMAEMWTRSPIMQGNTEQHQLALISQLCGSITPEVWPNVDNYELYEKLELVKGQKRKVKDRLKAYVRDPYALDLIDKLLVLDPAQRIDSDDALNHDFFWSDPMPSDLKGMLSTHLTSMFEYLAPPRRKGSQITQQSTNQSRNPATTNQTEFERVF
Chain of CDK9/Cyclin T1 (O60563 whole entry partner): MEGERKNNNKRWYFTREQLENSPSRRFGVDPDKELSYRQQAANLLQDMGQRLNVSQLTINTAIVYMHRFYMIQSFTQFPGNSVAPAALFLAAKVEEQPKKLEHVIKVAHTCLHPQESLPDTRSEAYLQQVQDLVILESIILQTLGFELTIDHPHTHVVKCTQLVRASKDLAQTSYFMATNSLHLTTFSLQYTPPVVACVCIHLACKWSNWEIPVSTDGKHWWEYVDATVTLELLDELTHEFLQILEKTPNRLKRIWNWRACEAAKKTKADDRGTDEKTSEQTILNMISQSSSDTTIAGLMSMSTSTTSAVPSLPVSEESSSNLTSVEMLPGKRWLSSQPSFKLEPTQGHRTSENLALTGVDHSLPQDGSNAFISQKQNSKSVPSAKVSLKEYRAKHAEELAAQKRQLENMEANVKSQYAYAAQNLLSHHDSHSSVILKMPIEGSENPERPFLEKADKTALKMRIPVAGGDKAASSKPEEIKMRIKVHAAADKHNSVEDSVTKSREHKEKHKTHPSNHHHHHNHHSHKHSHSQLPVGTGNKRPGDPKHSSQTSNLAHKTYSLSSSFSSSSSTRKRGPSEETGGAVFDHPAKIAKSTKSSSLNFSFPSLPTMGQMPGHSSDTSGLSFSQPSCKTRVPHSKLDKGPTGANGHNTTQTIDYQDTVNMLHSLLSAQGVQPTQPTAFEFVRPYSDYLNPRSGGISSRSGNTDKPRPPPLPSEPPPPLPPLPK
Chain of CDK7/CycH/Mat1 (P50613 whole entry): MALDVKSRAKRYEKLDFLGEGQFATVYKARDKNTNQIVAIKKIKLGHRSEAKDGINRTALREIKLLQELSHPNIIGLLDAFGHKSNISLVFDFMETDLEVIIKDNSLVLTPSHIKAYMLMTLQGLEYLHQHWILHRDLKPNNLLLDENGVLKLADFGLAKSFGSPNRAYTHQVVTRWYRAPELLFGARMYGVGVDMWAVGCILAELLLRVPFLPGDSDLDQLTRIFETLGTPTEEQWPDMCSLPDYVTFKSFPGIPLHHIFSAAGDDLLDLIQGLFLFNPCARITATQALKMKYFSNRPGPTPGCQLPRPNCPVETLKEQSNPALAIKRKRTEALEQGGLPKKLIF

Row | Structure (SMILES) | IC50 (CDK2/CycA; [1]) [nM] | IC50 (CDK7/CycH/Mat1; [2]) [nM] | IC50 (CDK9/Cyclin T1; [3]) [nM] | further results
1 | COc1ccccc1[C@H](C)Nc1nc(O[C@@H]2CCNC2)nc2c(C(C)C)cnn12 [(VII-11), 8-isopropyl-N-((S)-1-(2-methoxyphenyl)ethyl)-2-((R)-pyrrolidin-3-yloxy)pyrazolo[1,5-a][1,3,5]triazin-4-amine] | 500 to 2500 | 5 to 10 | 500 to 2500 | –
2 | CC(C)c1cnn2c(NCc3ccccc3OC3CCCC3)nc(O[C@@H]3CCCNC3)nc12 [(VII-095), (R)-N-(2-(cyclopentyloxy)benzyl)-8-isopropyl-2-(piperidin-3-yloxy)pyrazolo[1,5-a][1,3,5]triazin-4-amine] | > 2500 | > 25 | > 2500 | –
3 | CC(C)c1cnn2c(NCc3cccc4ccccc34)nc(OC3CCN(C)CC3)nc12 [(VII-61), 8-isopropyl-2-((1-methylpiperidin-4-yl)oxy)-N-(naphthalen-1-ylmethyl)pyrazolo[1,5-a][1,3,5]triazin-4-amine] | 500 to 2500 | 5 to 10 | 50 to 500 | –
4 | Cc1ccc(CNc2nc(O[C@@H]3CCCNC3)nc3c(C(C)C)cnn23)c(OCC(C)C)c1 [(VII-115), (R)-N-(2-isobutoxy-4-methylbenzyl)-8-isopropyl-2-(piperidin-3-yloxy)pyrazolo[1,5-a][1,3,5]triazin-4-amine] | > 2500 | > 25 | > 2500 | –
5 | CC(C)c1cnn2c(NCc3ccccc3-n3cccn3)nc(OC3CCN(C)CC3)nc12 [(VII-73), N-(2-(1H-pyrazol-1-yl)benzyl)-8-isopropyl-2-((1-methylpiperidin-4-yl)oxy)pyrazolo[1,5-a][1,3,5]triazin-4-amine] | 500 to 2500 | < 5 | > 2500 | –
6 | CC(C)c1cnn2c(NCc3ccccc3-c3cccs3)nc(O[C@@H]3CCNC3)nc12 [(VII-13), (R)-8-isopropyl-2-(pyrrolidin-3-yloxy)-N-(2-(thiophen-2-yl)benzyl)pyrazolo[1,5-a][1,3,5]triazin-4-amine] | 50 to 500 | < 5 | 500 to 2500 | –
7 | CC(C)c1cnn2c(NCc3ccccc3-n3ccnc3)nc(OC3CCN(C)CC3)nc12 [(VII-59), N-(2-(1H-imidazol-1-yl)benzyl)-8-isopropyl-2-((1-methylpiperidin-4-yl)oxy)pyrazolo[1,5-a][1,3,5]triazin-4-amine] | – | < 5 | > 2500 | Selectivity CDK7 over CDK2 (CDK2/CycA; Table 6): 3926 fold; IC50 (CDK7/CycH/Mat1; Table 6, read-out: IC50 CDK7): < 5 nM; Selectivity CDK7 over CDK9 (CDK9/Cyclin T1; Table 6): 9140 fold
8 | CC(C)c1cnn2c(NCc3ccccc3S(=O)(=O)N(C)C)nc(O[C@@H]3CCCNC3)nc12 [(VII-38), (R)-2-(((8-isopropyl-2-(piperidin-3-yloxy)pyrazolo[1,5-a][1,3,5]triazin-4-yl)amino)methyl)-N,N-dimethylbenzenesulfonamide] | 50 to 500 | < 5 | 500 to 2500 | Selectivity CDK7 over CDK2 (CDK2/CycA; Table 7): 342 fold; IC50 (CDK2/CycA; Table 7, read-out: IC50 CDK2): 50 to 500 nM; IC50 (CDK7/CycH/Mat1; Table 7, read-out: IC50 CDK7): < 5 nM; Selectivity CDK7 over CDK9 (CDK9/Cyclin T1; Table 7): 2733 fold; IC50 (CDK9/Cyclin T1; Table 7, read-out: IC50 CDK9): 500 to 2500 nM
9 | CC(C)c1cnn2c(NCc3ccccc3CN3CCCC3=O)nc(O[C@@H]3CCCNC3)nc12 [(VII-092), (R)-1-(2-(((8-isopropyl-2-(piperidin-3-yloxy)pyrazolo[1,5-a][1,3,5]triazin-4-yl)amino)methyl)benzyl)pyrrolidin-2-one] | > 2500 | 10 to 25 | > 2500 | –
10 | CC(C)c1cnn2c(NCc3cccc(F)c3-n3cccn3)nc(O[C@@H]3CCCNC3)nc12 [(VII-42), (R)-N-(3-fluoro-2-(1H-pyrazol-1-yl)benzyl)-8-isopropyl-2-(piperidin-3-yloxy)pyrazolo[1,5-a][1,3,5]triazin-4-amine] | < 50 | < 5 | 50 to 500 | –
11 | CC(C)c1cnn2c(NCc3ccccc3Br)nc(O[C@@H]3CCCNC3)nc12 [(VII-100), (R)-N-(2-bromobenzyl)-8-isopropyl-2-(piperidin-3-yloxy)pyrazolo[1,5-a][1,3,5]triazin-4-amine] | 50 to 500 | < 5 | 50 to 500 | –

Further lines, with some results ahead:

Row | IC50 (CDK2/CycA; [1]) [nM] | IC50 (CDK7/CycH/Mat1; [2]) [nM] | IC50 (CDK9/Cyclin T1; [3]) [nM] | Structure (SMILES) | further results
12 | 50 to 500 | 5 to 10 | 50 to 500 | CSc1ccccc1CNc1nc(O[C@@H]2CCCNC2)nc2c(C(C)C)cnn12 [(VII-118), (R)-8-isopropyl-N-(2-(methylthio)benzyl)-2-(piperidin-3-yloxy)pyrazolo[1,5-a][1,3,5]triazin-4-amine] | –
13 | > 2500 | > 25 | > 2500 | CC(C)c1cnn2c(NCc3ccccc3-n3cccn3)nc(NCC3CCNC3)nc12 (stereo not shown) [(VIII-052), N4-(2-(1H-pyrazol-1-yl)benzyl)-8-isopropyl-N2-(pyrrolidin-3-ylmethyl)pyrazolo[1,5-a][1,3,5]triazine-2,4-diamine] | –
14 | > 2500 | < 5 | > 2500 | CC(C)c1cnn2c(NCc3ccccc3-n3cccn3)nc(C(=O)NCC3CCNC3)nc12 (stereo not shown) [(XII-3), 4-((2-(1H-pyrazol-1-yl)benzyl)amino)-8-isopropyl-N-(pyrrolidin-3-ylmethyl)pyrazolo[1,5-a][1,3,5]triazine-2-carboxamide] | –
15 | 50 to 500 | 10 to 25 | 500 to 2500 | CC(C)c1cnn2c(NCc3ccccc3[S+](C)[O-])nc(O[C@@H]3CCCNC3)nc12 (stereo partly drawn) [(VII-152), 8-isopropyl-N-(2-(methylsulfinyl)benzyl)-2-((R)-piperidin-3-yloxy)pyrazolo[1,5-a][1,3,5]triazin-4-amine] | –
16 | 50 to 500 | < 5 | > 2500 | CC(C)c1cnn2c(NCc3ccccc3-n3cccn3)nc(S[C@@H]3CCCNC3)nc12 [(X-8), (R)-N-(2-(1H-pyrazol-1-yl)benzyl)-8-isopropyl-2-(piperidin-3-ylthio)pyrazolo[1,5-a][1,3,5]triazin-4-amine] | –
17 | > 2500 | < 5 | 500 to 2500 | CC(C)c1cnn2c(NCc3cccc4nonc34)nc(N3CCC4(CCCN4)CC3)nc12 [(VIII-36), N-(benzo[c][1,2,5]oxadiazol-4-ylmethyl)-8-isopropyl-2-(1,8-diazaspiro[4.5]decan-8-yl)pyrazolo[1,5-a][1,3,5]triazin-4-amine] | –
18 | > 2500 | > 25 | > 2500 | CC(C)c1cnn2c(NCc3ccccc3-n3cccn3)nc(C(=O)N(C)CCN3CCCC3)nc12 [(XII-8), 4-((2-(1H-pyrazol-1-yl)benzyl)amino)-8-isopropyl-N-methyl-N-(2-(pyrrolidin-1-yl)ethyl)pyrazolo[1,5-a][1,3,5]triazine-2-carboxamide] | –
19 | > 2500 | > 25 | > 2500 | CC(C)c1cnn2c(NCc3ccccc3-n3cccn3)nc(CN(C)CCCN3CCCCC3)nc12 [(XXX-6), N-(2-(1H-pyrazol-1-yl)benzyl)-8-isopropyl-2-((methyl(3-(piperidin-1-yl)propyl)amino)methyl)pyrazolo[1,5-a][1,3,5]triazin-4-amine] | –
20 | 50 to 500 | < 5 | > 2500 | CNS(=O)(=O)c1ccccc1CNc1nc(O[C@@H]2CCCNC2)nc2c(C(C)C)cnn12 [(VII-104), (R)-2-(((8-isopropyl-2-(piperidin-3-yloxy)pyrazolo[1,5-a][1,3,5]triazin-4-yl)amino)methyl)-N-methylbenzenesulfonamide] | –
21 | 500 to 2500 | 5 to 10 | > 2500 | CC(C)Oc1ccccc1CNc1nc(N[C@@H]2CCCNC2)nc2c(C(C)C)cnn12 [(VIII-32), (R)-N4-(2-isopropoxybenzyl)-8-isopropyl-N2-(piperidin-3-yl)pyrazolo[1,5-a][1,3,5]triazine-2,4-diamine] | –
22 | > 2500 | > 25 | > 2500 | CC(C)c1cnn2c(NCc3ccccc3-n3cccn3)nc(NCCCN)nc12 [(VIII-039), N4-(2-(1H-pyrazol-1-yl)benzyl)-N2-(3-aminopropyl)-8-isopropylpyrazolo[1,5-a][1,3,5]triazine-2,4-diamine] | –
